In PubChem BioAssay (NCI) one finds TGI and GI50 data, which are given here for 34 molecules.

Assay in all cases: inhibition of tumour cell growth, NCI panel, 48 h
Experiment [1] has as its system KM12 colon.
For experiment [2], the system named is SW-620 colon.
Experiment [3] has as its system SK-MEL-28 melanoma.
Experiment [4] relates to RPMI-8226 leukemia.
The subject of experiment [5] is A498 renal.
Experiment [6] concerns HOP-62 NSCLC.
In experiment [7] the test system is OVCAR-4 ovarian.
In experiment [8] the test system is UACC-62 melanoma.
For experiment [9], the system named is SR leukemia.

Each structure is given as a SMILES string.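 Where inhibition never reached the appropriate level, the endpoint shown equals the highest concentration tested. Otherwise, values were interpolated linearly from a five-concentration, 48-hour dose response in 96-well plates. Abbreviation: GI50, concentration required for 50% inhibition of growth. TGI: concentration producing complete growth inhibition.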

On to `CC(C)=C[C@@H]1C[C@H](C)[C@H]2CC[C@H](C)[C@H]3C(=O)C(O)=C(C)C(=O)[C@]123`, for which the TGI in experiment [1], in experiment [2], in experiment [3], in experiment [4], in [5] and in [6] was greater than 100 µM in each case. Further, the TGI in [7] and in [8] was greater than 100 µM throughout.

On to `CO[C@@H](c1ccccc1)[C@H](O)[C@@](O)(c1ccccc1)P(=O)(OC)OC`, for which the TGI in [1], in [2], in [3], in experiment [4], in [5] and in experiment [9] was greater than 100 µM each time. The same molecule showed a TGI in experiment [8] greater than 100 µM.

Take `CO/C(N)=C(\C#N)N=Cc1cccs1`: the TGI in experiment [1], in experiment [2], in experiment [3], in experiment [5], in [6] and in [7] was greater than 100 µM throughout. Besides, the TGI in experiment [8] was greater than 100 µM.

Turning to `CC(=O)Oc1c(OC(C)C)cc(=O)n2ccsc12`, the TGI in [1], in experiment [2], in [3], in experiment [4], in [5] and in experiment [6] was greater than 100 µM each time. Besides, the TGI in [7] and in [8] was greater than 100 µM throughout.

Take `O=CC12CCCN1CCC2`: the TGI in [2], in experiment [3], in experiment [6], in [9], in [7] and in experiment [8] was greater than 100 µM each time.

For `O=C1Cc2c([nH]c3c(Br)cccc23)-c2ccccc2N1`, the TGI in [1] was greater than 100 µM; in [2], greater than 100 µM; in experiment [4], greater than 100 µM; in experiment [5] it was greater than 100 µM; in [6], greater than 100 µM; in experiment [9] it was 55.3 µM. The TGI in [8] was greater than 100 µM.

In the case of `CN(C)c1ccc(/C=C2\CCCCCC2=O)cc1`, the TGI in experiment [1], in experiment [2], in [3], in experiment [4], in experiment [5] and in experiment [6] was greater than 100 µM throughout. Moreover, the TGI in [9] and in experiment [8] was greater than 100 µM in each case.

For `CCCCSC1=N/C(=C\c2ccccc2O)C(Cl)=N1`, the TGI in [1], in [2], in experiment [3], in [4], in [5] and in experiment [6] was greater than 100 µM each time. The TGI in experiment [7] and in experiment [8] was greater than 100 µM in each case.

As to `Nc1nc(N)c2ncn(Cc3ccccc3)c2n1`, the TGI in experiment [1], in [2], in [3], in experiment [4], in experiment [5] and in experiment [6] was greater than 100 µM each time. In addition, the TGI in experiment [7] and in experiment [8] was greater than 100 µM throughout.

Regarding `O=C(c1ccccc1)n1c2ccc(Br)cc2c2nc3ccccc3nc21`, the TGI in experiment [1], in [2], in experiment [3], in experiment [4], in experiment [6] and in experiment [9] was greater than 100 µM throughout. For the same molecule, the TGI in experiment [7] and in experiment [8] was greater than 100 µM throughout.

On to `COc1cc(O)c2c(=O)c(O)c(-c3ccc(O)c(O)c3)oc2c1`, for which the TGI in experiment [2] is 53.7 µM; in [3] it was greater than 100 µM; in experiment [4], greater than 100 µM; in [5] it was 14.9 µM; in experiment [6], 63.2 µM; in experiment [9] it was greater than 100 µM. The TGI was 37.6 µM in experiment [7] and greater than 100 µM in experiment [8].

Regarding `CNc1nc(OC)c2c(n1)[n+](C)cn2C`, the TGI in experiment [1], in experiment [2], in experiment [3], in experiment [4], in experiment [5] and in [6] was greater than 100 µM each time. In experiment [8], this molecule showed a TGI greater than 100 µM.

Regarding `COc1ccc2c(C=O)c3n(c(=O)c2c1OC)CCc1cc2c(cc1-3)OCO2`, the TGI is greater than 100 µM in experiment [1]; greater than 100 µM in experiment [2]; greater than 100 µM in [3]; 30.5 µM in [4]; greater than 100 µM in experiment [5]; greater than 100 µM in [6]. Also, the TGI in experiment [7] and in experiment [8] was greater than 100 µM each time.

In the case of `CCCCCNC(=O)OC1CCn2c1nc1c2C(=O)C(C)=C(N2CC2)C1=O` (stereo not given), the TGI in experiment [1] was 3.48 µM; in experiment [3], 2.78 µM; in [4] it was greater than 100 µM; in experiment [5] it was 3.31 µM; in experiment [9] it was greater than 100 µM; in [7], 4.98 µM. In [8], this molecule gave a TGI of 3.54 µM.

Turning to `N=c1sc(N2CCOCC2)nn1CC(=O)c1ccccc1`, the TGI in experiment [1], in experiment [2], in experiment [3], in [4], in experiment [6] and in [7] was greater than 100 µM each time. In addition, in [8], the TGI was greater than 100 µM.

For the molecule `CCN(CC)CCCNc1nnc(C)c2[nH]c3ccccc3c12`, the TGI in experiment [1] is greater than 100 µM; in [2] it was greater than 100 µM; in experiment [3] it was 40.6 µM; in [4], greater than 100 µM; in [5] it was 43.1 µM; in experiment [6], 35.5 µM. For the same molecule, the results for the TGI in [9] and in experiment [8] were 32.6 µM and 27.9 µM, respectively.

As to `Cc1ccc(C(=O)C2CC3(CCC2(O)c2ccc(C)cc2)CC(=O)Nc2ccccc2C3=O)cc1` (stereo not given), the TGI in experiment [2], in experiment [3], in experiment [5], in [6], in [9] and in experiment [8] was greater than 100 µM in each case.

On to `Nc1nc(Nc2cc(F)c(Cl)c(F)c2)cc(=O)[nH]1`, for which the TGI in experiment [1], in [2], in experiment [3], in [4], in experiment [5] and in experiment [6] was greater than 100 µM each time. For the same molecule, the TGI in experiment [7] and in experiment [8] was greater than 100 µM in each case.

Consider `CC(C)[C@H](NC(=O)OCc1ccccc1)C(=O)N[C@H](/C=C/C(=O)OC(C)(C)C)CO`, for which the TGI in experiment [1], in [2], in [3], in [5], in experiment [6] and in experiment [9] was greater than 100 µM in each case. In addition, the TGI in [7] and in [8] was greater than 100 µM throughout.

As to `Clc1cc2ncn(C3CCCO3)c2cc1Cl` (stereo not given), the TGI in experiment [1], in experiment [2], in experiment [3], in [4], in [6] and in experiment [9] was greater than 100 µM throughout. Further, the TGI in [7] and in experiment [8] was greater than 100 µM throughout.

Turning to `COc1ccc(OC)c2c(Nc3ccc(S(=O)(=O)O)c4cc(S(=O)(=O)O)cc(S(=O)(=O)O)c34)cc(C)nc12`, the TGI in [1], in experiment [2], in experiment [3], in experiment [4], in experiment [5] and in [6] was greater than 100 µM in each case. The TGI in [7] and in [8] was greater than 100 µM each time.

With `O=C(Nc1nc2ccc([N+](=O)[O-])cc2s1)c1cc([N+](=O)[O-])ccc1Cl`, the TGI in experiment [1] was 50.5 µM; in [2], 5.59 µM; in experiment [4], 9.8 µM; in [5] it was 7.42 µM; in [6], 10.3 µM; in [7], greater than 100 µM.

With `Cc1nnc(N)s/c1=N/O`, the TGI in [1], in [2], in experiment [3], in experiment [4], in experiment [5] and in experiment [6] was greater than 100 µM throughout. Also, the TGI in experiment [7] and in experiment [8] was greater than 100 µM each time.

As for `COC(=O)C1CCC(=S)N1C(C)=O` (stereo not given), the TGI in [1], in [2], in experiment [3], in experiment [4], in experiment [5] and in [6] was greater than 100 µM each time. Further, the TGI in experiment [7] and in experiment [8] was greater than 100 µM in each case.

Take `Cc1cc(N(CCCl)CCCl)ccc1/C=N\NC(=O)c1cccnc1`: the GI50 in [1] was 34.4 µM; in experiment [2], 30.3 µM; in experiment [3] it was 43.4 µM; in experiment [4], 20.1 µM; in experiment [5], 1.42 µM; in experiment [6], 19.5 µM. The values for the GI50 in experiment [9] and in experiment [8] were 4.81 µM and 4.51 µM, respectively. The TGI in [1] is greater than 100 µM; in experiment [2] it was greater than 100 µM; in [3], greater than 100 µM; in experiment [4], 59 µM; in [5], 2.92 µM; in experiment [6], greater than 100 µM. The values for the TGI in [9] and in experiment [8] were greater than 100 µM and 25.2 µM, respectively.

In the case of `NNC(=O)COc1nc(-c2cccs2)nc2ccc(I)cc12`, the TGI in experiment [1] is 41.5 µM; in experiment [2], greater than 100 µM; in experiment [3], 56.2 µM; in [4], 39.4 µM; in experiment [6], 75.6 µM; in experiment [9], 55.6 µM. Further, the TGI was found to be 77 µM in [7] and 45.1 µM in experiment [8]. Further, the GI50 in experiment [4] was 16 µM.

In the case of `COc1ccc(/[N+]([O-])=C/c2ccccc2OC(=S)S)cc1`, the TGI is greater than 100 µM in [1]; greater than 100 µM in experiment [2]; greater than 100 µM in [3]; 61 µM in [4]; greater than 100 µM in experiment [5]; greater than 100 µM in experiment [9]. Moreover, the TGI in experiment [7] and in [8] was greater than 100 µM each time.

For `Oc1[nH]c2ccccc2c1N=Nc1nc(-c2ccccc2)cs1`, the TGI in experiment [1] is greater than 100 µM; in experiment [2], greater than 100 µM; in [3], greater than 100 µM; in [6], 66.4 µM; in [7], greater than 100 µM.

As to `CCCSC1=N/C(=C\c2ccco2)C(=O)N1`, the TGI in experiment [1], in experiment [2], in experiment [3], in experiment [4], in [5] and in [6] was greater than 100 µM each time. In addition, the TGI in experiment [7] and in [8] was greater than 100 µM throughout.

On to `CCOC(=O)C1(NC(=O)OC(C)(C)C)CCc2[nH]oc(=O)c2C1` (stereo not given), for which the TGI in experiment [1], in [2], in experiment [3], in experiment [4], in [5] and in experiment [6] was greater than 100 µM each time. Moreover, the TGI in experiment [7] and in [8] was greater than 100 µM throughout.

For the molecule `CCOC(=O)c1sc2nc(SC)nc3c2c1NCN3c1ccccc1Cl`, the TGI in experiment [1], in [2], in experiment [3], in experiment [4], in experiment [5] and in [6] was greater than 100 µM throughout. The TGI in [7] and in [8] was greater than 100 µM throughout.

With `O=P1(C(O)c2ccccc2)N(Cc2ccccc2)[C@@H]2CCCC[C@H]2N1Cc1ccccc1` (stereo not given in full), the TGI in [1] was greater than 100 µM; in experiment [2], greater than 100 µM; in experiment [3], greater than 100 µM; in [6] it was greater than 100 µM; in experiment [9], 49.9 µM; in [7], 53.1 µM. In [8], the TGI is greater than 100 µM.

Consider `CCc1nc2cc(F)ccc2[nH]c1=O`, for which the TGI in experiment [1], in [2], in [3], in [4], in experiment [5] and in experiment [6] was greater than 100 µM each time. Besides, the TGI in experiment [7] and in experiment [8] was greater than 100 µM each time.

With `CC(=O)Oc1cc(OC(C)=O)c2c(c1C)CC[C@@H]1[C@@H]2CC[C@]2(C)[C@@H](OC(C)=O)CC[C@@H]12`, the TGI in experiment [1] is 31.5 µM; in [2], 32.9 µM; in [3], 33 µM; in experiment [4] it was 31.3 µM; in [5], 34.8 µM; in experiment [6], 36 µM. The TGI in experiment [9] worked out at 73.6 µM; in experiment [8], 34.7 µM.
